Experiment [1] concerns MIP1α induced THP-1 migration. As to the kind of experiment: THP-1 trans-well migration assay, MIP1α as chemoattractant. The class given is cell-based, human. Conditions: for pEC50: n.s. = no statistically significant inhibition (p > 0.05), read-out: ED50 versus MIP1α, inhibition of THP-1 migration. As for the experimental part: (§1) To determine whether an agent inhibits a chemokine-induced activity, such as macrophage recruitment, varying amounts of the agent are mixed with cells in the presence of a known chemoattractant. For example, a range of known concentrations of an agent, e.g., a chemokine peptide, is incubated with a defined number (e.g., 10^4-10^6) of human THP-1 monocyte cells in individual wells of the top compartment of a trans-well plate. Chemokine (such as MCP-1, MIP1α, IL8 or SDF-1α), at a concentration known to cause significant migration of THP-1 cells in the trans-well migration assay, is placed in the lower compartment (FIG. 1). Cells are then incubated at 37° C. for a period sufficient to allow migration, e.g., 4 hours. After incubation, the cells are gently removed from the top of the filter with a pipette, 20 μl of 20 mM EDTA in simple PBS is added into each top well, and incubated for 20 minutes at 4° C. The filter is carefully flushed with media using a gentle flow, and removed. A standard curve consisting of a two-fold dilution series of THP-1 cells (in 29 μl) is prepared to accurately quantify the number of cells that have migrated. Migrated cells are stained with 3 μl of MTT stock dye solution which is added directly into each well (5 mg/ml in RPMI-1640 without phenol red, Sigma Chemical Co.) and incubated at 37° C. for 4 hours. The media is carefully aspirated from each well, and the converted dye is solubilized by 20 μl of DMSO. Absorbance of converted dye is measured at a wavelength of 595 nm using an ELISA plate reader. The number of migrated cells in each well is then determined by interpolation of the standard curve (see also Imai et al., J. Biol. Chem., 272, 15036 (1997)).
(§2) For this assay, THP-1 cells were maintained at a density of 4×10^5 cells per ml in RPMI-1640 supplemented with 10% fetal calf serum+20 μM 2-mercaptoethanol. Chemotaxis was induced in a 96-well disposable chemotaxis chamber fitted with a […] polycarbonate filter (PVP free, ChemoTX, Neuroprobe Inc., Cabin John). Twenty-nine μl of chemoattractant (recombinant human chemokine; 50 ng/ml, i.e., 5.9 nM) or control (100 ng/ml TGFβ) was added to the lower compartment of each well. The framed filter was aligned with the holes in the corner of the filter frame and placed over the wells. Five×10^4 THP-1 cells in 25 μl of RPMI-1640 were added to the upper compartment. Peptides were dissolved in Milli Q water and then serially diluted in culture medium. In most cases, the serially diluted peptides were added to the upper compartment of the chemotaxis chamber. The chamber was incubated at 37° C. in a humidified atmosphere of 5% CO2 for 4 hours.
(§3) After incubation, the cells were gently removed from the top of the filter with a pipette, 20 μl of 20 mM EDTA in PBS was added into each top well, and the mixture was incubated for 20 minutes at 4° C. The filter was then carefully flushed with media using a gentle flow, and removed. A standard curve was prepared to accurately quantify the number of THP-1 cells that had migrated. The curve was based on a two-fold dilution series of THP-1 cells (top standard 100,000 cells in 29 μl). Cells which had migrated, and in separate wells, the cells in the standards, were stained with 3 μl of MTT stock solution which was added directly into each well (5 mg/ml in RPMI 1640 without phenol red, Sigma Chemical Co.) and incubated at 37° C. for 4 hours. The media was carefully aspirated from each well, and the converted dye was solubilized by 20 μl of DMSO. Absorbance of converted dye was measured at a wavelength of 595 nm using an ELISA plate reader. The number of cells that had migrated in each well was determined by interpolation of the standard curve.

Experiment [2] deals with IL8 induced THP-1 migration. The experiment can be described thus: THP-1 trans-well migration assay, IL-8 as chemoattractant. It counts as cell-based, human. As to conditions: n.s. = no statistically significant inhibition (p > 0.05); for pEC50: read-out: ED50 versus IL8, inhibition of THP-1 migration. Here is the method: as §1, §2, §3
For experiment [3], the system named is TGFβ1 induced THP-1 migration. As to the kind of experiment: THP-1 trans-well migration assay, TGFβ1 as non-chemokine control. Conditions: n.s. = no statistically significant inhibition (p > 0.05). The class given is cell-based, human. Here is the method:
Any method suitable for counting cells can be used, for example, counting with a hemocytometer, incubation of the cells with MTT (see above), or FACS analysis. A negative control assay is also performed, using TGF-β or another non-chemokine chemoattractant (e.g., IL1β or TNFα). To assess whether the agent is cytotoxic, the same concentrations of agent are incubated with THP-1 cells. Agents which 1) are not cytotoxic at levels which inhibit migration, 2) are ineffective at inhibiting the negative control-induced migration, and 3) reduce or inhibit chemokine-induced THP-1 migration, are agents which fall within the scope of the invention.
Chemotaxis was induced in a 96-well disposable chemotaxis chamber fitted with a […] polycarbonate filter (PVP free, ChemoTX, Neuroprobe Inc., Cabin John). […] The framed filter was aligned with the holes in the corner of the filter frame and placed over the wells. […] Peptides were dissolved in Milli Q water and then serially diluted in culture medium. In most cases, the serially diluted peptides were added to the upper compartment of the chemotaxis chamber. The chamber was incubated at 37° C. in a humidified atmosphere of 5% CO2 for 4 hours.
After incubation, the cells were gently removed from the top of the filter with a pipette, 20 μl of 20 mM EDTA in PBS was added into each top well, and the mixture was incubated for 20 minutes at 4° C. The filter was then carefully flushed with media using a gentle flow, and removed. […] The curve was based on a two-fold dilution series of THP-1 cells (top standard 100,000 cells in 29 μl). […] The media was carefully aspirated from each well, and the converted dye was solubilized by 20 μl of DMSO.

Experiment [4] relates to MCP-1 induced THP-1 migration. As to the kind of experiment: THP-1 trans-well migration assay, MCP-1 as chemoattractant. It counts as cell-based, human. As to conditions: agent with the cells in the upper compartment, n.s. = no statistically significant inhibition (p > 0.05); for pEC50: read-out: ED50 versus MCP-1, inhibition of THP-1 migration. As for the experimental part:
as §1, §2, §3

Experiment [5] relates to SDF-1α induced THP-1 migration. The experiment can be described thus: THP-1 trans-well migration assay, SDF-1α as chemoattractant. The class given is cell-based, human. Conditions: n.s. = no statistically significant inhibition (p > 0.05); for pEC50: read-out: ED50 versus SDF-1α, inhibition of THP-1 migration. Here is the method: as §1, §2, §3
Experiment [6] concerns chemokine-induced THP-1 migration. As to the kind of experiment: THP-1 trans-well migration assay, panel of chemokines (MCP-1, MIP1α, IL-8, SDF1α). The class given is cell-based, human. Conditions: for CC SPECIFICITY: average inhibitory ED50 versus SDF1 and IL8 divided by average inhibitory ED50 versus MCP-1 and MIP1α.
For experiment [7], the system named is chemokine receptors on THP-1 cells. As to the kind of experiment: Binding to chemokine receptors on THP-1 cells. Set-up: species or system human. Here is the method: In general, specific binding is calculated as the amount of labeled agent bound in the absence of cold competitor minus the amount of labeled agent bound in the presence of cold competitor. The amount of specific binding in the presence of varied amounts of cold competitor can be used to determine the association constant for the agent, as well as the number of binding sites on the cell for the agent, using, for example, Scatchard Analysis. The agent may be labeled by radiolabeling (e.g., iodination) or with a suitable biochemical tag (e.g., biotin) or by addition of a photoactivatable crosslinking group. Agents with an association constant lower than 100 μM (i.e., which bind more strongly than an agent with an association constant of 100 μM) and which have at least about 2,500, preferably at least about 10,000, and more preferably greater than 25,000, binding sites per cell for at least one cell type which expresses a chemokine receptor, fall under the scope of this invention. THP-1 cells have at least about 5,000 MCP-1 receptors/cell.
For example, monocytes are suspended in RPMI 1640 medium without bicarbonate containing 0.2% bovine serum albumin and 0.1% azide. Radiolabeled chemokine peptide is incubated with 1-2×10^6 cells, e.g., THP-1 cells, in the presence or absence of increasing concentrations of unlabeled chemokine (MCP-1, MCP-3, MCP-4, RANTES or MIP-1α) for 15 minutes at 37° C. in a 96-well plate in a final volume of 0.2 ml (e.g., PBS+0.5% FCS). After the incubation, 0.5 ml of ice-cold wash buffer (20 mM Tris, 0.5 M NaCl, pH 7.4) is added, and cells are collected onto a polyethyleneimine-treated Whatman GF/C filter using a Brandall cell harvester. Filters are washed with 4 ml of cold wash buffer, and the radioactivity bound to the filters is counted in a γ-counter.
For Scatchard analysis, the absorbance readings at 450 nm were calibrated, by reference to a standard curve in which known amounts of labeled peptide were coupled to derivatized sepharose beads (activated thiol-sepharose 4B; Sigma T8512) via the cysteine residue in each peptide. Briefly, known amounts (1 fmol to 1 pmol) of biotin-labeled peptide were incubated with 1 mg of activated thiol-sepharose beads in 100 μl of PBS at 37° C. for 1 hour. Free activated thiols were then blocked by addition of cysteine to a final concentration of 10 mM. The peptide-conjugated beads were then washed 5 times in PBS and treated exactly as for the cells described above. The absorbance at 450 nm obtained when a known amount of peptide was coupled to the beads was used to construct a standard curve which was used to convert the absorbance readings obtained with cells into number of molecules of labeled peptide which had bound.

The mark [8] stands for this setting: average inhibitory ED50 for inhibition of THP-1 migration induced by each of the chemokines, read-out: AVERAGE ED50.

pEC50: −log10 of the molar value. Where two headings read alike, the source gives them in different places. Marks after values point to notes of the source that are not given here.

As to CADPKQKWVQ [Peptide 3[3-12]], the pEC50 in experiment [1] was 5.15; in experiment [2], 5.05; in experiment [4], 5.10; in experiment [5], 5.05. Moreover, in experiment [3], the “ED50 versus TGFβ1, inhibition of THP-1 migration” value (“ED50 versus TGFβ1, inhibition” below) is given as “n.s”.

On to EICADP [Peptide 3[1-6]], for which the pEC50 in experiment [1] is 4.60; in experiment [2], 4.77; in experiment [4], 4.48; in experiment [5], 4.72; in experiment [6] (THP-1 migration, read-out: ED50 for inhibiting the CC chemokines), around 4.52; in experiment [6] (setting [8]), 4.62. The “ED50 versus TGFβ1, inhibition” value in experiment [3] is “n.s”. Besides, in experiment [6], the “CC SPECIFICITY” value is given as 0.7.

On to EICADPKQKWIQ [Ile11peptide 3], for which the pEC50 is 5.40 in experiment [1]; 5.70 in experiment [2]; 5.22 in experiment [4]; 5.15 in experiment [5]; 5.30 in experiment [6] (setting [8]). The “ED50 versus TGFβ1, inhibition” value in experiment [3] was “n.s”. In addition, the “selectivity of IL-8 over other chemokines” value in experiment [6] is recorded as “about 3 fold”. Also, the “CC SPECIFICITY” value in experiment [6] stood at 0.9.

For EICADPSEEWVQ [Ser7Glu8Glu9pep3], the pEC50 in experiment [1] was 5.70; in experiment [2] it was 5.05; in experiment [4] it was 5.15; in experiment [5] it was 5.30; in experiment [6] (setting [8]), 5.22. Moreover, in experiment [3], the “ED50 versus TGFβ1, inhibition” value is “n.s”. The “selectivity ratio for MIP1α versus all other chemokines” value in experiment [6] is reported as “about 3 fold”.

As for EICADPSQKWVQ [Ser7peptide 3], the pEC50 in experiment [1] is 5.22; in experiment [2], 5.52; in experiment [4], 5.15; in experiment [5] it was 5.40; in experiment [6] (setting [8]), 5.30. Also, in experiment [3], the “ED50 versus TGFβ1, inhibition” value is on record as “n.s”. In experiment [6], the “CC SPECIFICITY” value stood at 0.5.

Take EICLDPKQKWVQ [Leu4peptide 3]: the pEC50 in experiment [1] was 5.15; in experiment [2], 5.52; in experiment [4], 5.10; in experiment [5], 5.52; in experiment [6] (setting [8]), 5.30. The “ED50 versus TGFβ1, inhibition” value in experiment [3] is “n.s”. For the same substance, the “increase in potency as an inhibitor of CXC chemokines compared with peptide 3(1-12)[MCP-1]” value in experiment [6] is reported as “approximately 4 fold”.

For the substance ELRVIESGPHCANTEI [Pep2[IL8]], the “AVERAGE ED50, peptide 2 family: estimated ka for binding to THP-1 cells” value in experiment [7] is 1-10^e μM.

In the case of KQKWVQ [Peptide 3[7-12]], the pEC50 is 5.30 in experiment [1]; 5.22 in experiment [2]; 5.15 in experiment [4]; 5.22 in experiment [5]; 5.05 to 5.15 in experiment [6] (THP-1 migration, read-out: ED50 range, migration by all chemokines tested). Also, in experiment [3], the “ED50 versus TGFβ1, inhibition” value is given as “n.s”.

Take SEE: the pEC50 was 5.22 in experiment [1] and 6.10 in experiment [6] (footnote f, KQK MCP-1, SEE MIP1α, KLK SDF1, KEN IL8, read-out: ED50 of a tripeptide against the one chemokine it is highly specific for). Moreover, the “percentage inhibition of migration induced by MIP1α” value in experiment [1] (tripeptide at 100 μM, mean ± range, dash = no statistically significant reduction in migration) is listed as 65 ± 3%. In addition, in experiment [2], the “ED50 versus IL8, inhibition of THP-1 migration” value is reported as “n.s”. The “ED50 versus TGFβ1, inhibition” value in experiment [3] is listed as “n.s”. For the same substance, in experiment [4], the “ED50 versus MCP-1, inhibition of THP-1 migration” value was “n.s”. Moreover, in experiment [5], the “ED50 versus SDF-1α, inhibition of THP-1 migration” value was “n.s”. For the same substance, the “specificity for the cognate chemokine over all the other chemokines tested” value in experiment [6] (KQK MCP-1, SEE MIP1-α) is listed as above 100 fold. Moreover, in experiment [6], the “CC SPECIFICITY” value is listed as above 100.

The record behind these values is US7989466B2, “Methods to inhibit or augment an inflammatory response” (Cambridge Enterprise Limited, priority 1999, dated 2011).
